From publication PMC2790607, “Finding of the Low Molecular Weight Inhibitors of Resuscitation Promoting Factor Enzymatic and Resuscitation Activity” (PLoS ONE, 2009) come the findings set out here.

The IC50 is the midpoint of a concentration-inhibition curve. The melting point is the temperature of the solid-liquid transition.

SMILES strings stand for the structures. In brackets after ≈: the same amount, converted by molar mass. Where two headings read alike, the source gives them in different places.

One data set has as its system Micrococcus luteus. In words: microbe, parasite or virus in culture. In kind it is cell-based. The conditions noted are these: Micrococcus luteus; lowest concentration which suppresses growth; determined during 24 hours; NI = no inhibition was observed.
Data set [1] deals with T1, Rpf Sm (Micrococcus luteus, UniProt O86308).
T1 construct: His-tag (inferred from the pET19b vector and the Ni2+-chelation purification); made in house; host or cells: E. coli HSM174 (DE3)
In words: Muralytic activity of Rpf, 4-MUF-3-NAG hydrolysis. Format: biochemical, M. luteus. On the procedure: The truncated form of M.luteus Rpf (RpfSm) was used for the analysis. The truncated protein contained conserved Rpf domain and additional 20 amino acids of the gene product, corresponding to the following amino acid sequence:
To determine a muralytic activity of the recombinant Rpfs', 4-methylumbelliferyl-β-D-N, N′, N″-triacetylchitotrioside (4-MUF-3-NAG) (“Sigma”, Germany) was applied. […] A number of experiments were performed in the presence of NPT compounds, in concentration range of 0.5–10 µg/ml. After 3 hours of incubation at 37°C, 2 µl of 10 M NaOH was added and the samples were frozen and kept at −20°C. […] The intensity of fluorescence was detected by the RF-5301PC fluorimeter (“SHIMADZU”, Japan) using excitation wavelength of 364 nm and a read-out of 448 nm.

The target of data set [2] is T2, ΔDUFRpf B (Mycobacterium tuberculosis, UniProt P9WG29). In kind it is binding, M. tuberculosis.
In data set [3] the test system is M. smegmatis "non-culturable" cells. Format: cell-based, Mycobacterium smegmatis. Conditions: MPN assay.
For data set [4], the system named is M. tuberculosis "non-culturable" cells. In kind it is cell-based, Mycobacterium tuberculosis. Conditions: for MPN, logarithmic transformation of cell concentration (cells/ml): inhibitor 10 µg/ml.
Data set [5] deals with Alcoholdehydrohenase(1.1.1.1). The data set is described as follows: Alcoholdehydrogenase activity (NAD+ to NADH, OD340). Format: biochemical. The conditions noted are these: control 1.7. Here is the method:
(§1) Alcoholdehydrohenase(1.1.1.1) activity: ADH was dissolved in 50 mM phospahe buffer pH 7 at the concentration 10 µg/ml. The rate of the reaction was judged by transformation of NAD^+ (1 mM) into NADH+H^+. As the substrate ethanol was used. Activity was measured by OD340. Laccase(1.10.3.2) activity: Laccase was dissolved in the 50 mM citrate-phosphate buffer, pH4.5 at concentration 9 µg/ml. Pyrocatechin was used at concentration 11 µg/ml. Activity was measured by OD410. Trypsin(3.4.21.4) activity: The enzyme at concentration 8.0 µg/ml was dissolved in 50 mM Tris-HCl buffer pH 8.0. Concentration of the substrate (N-CBz-Gly-Gly-Arg-β-naphthylamide - Sigma-Aldrich)- 11 µg/ml. Registration of the kinetic curves was made fluorimetrically - excitation wavelength - 330 nm; emission - 420 nm. (0.02 MB DOC) Click here for additional data file.

A further data set relates to Laccase(1.10.3.2). The data set is described as follows: Laccase activity (pyrocatechin, OD410). Conditions: control 3.6. Format: biochemical. Here is the method: as §1
The next data set has as its system Trypsin(3.4.21.4). In words: Trypsin activity (fluorimetric). In kind it is biochemical. The conditions noted are these: control 10. On the procedure: as §1
Data set [6] deals with T1, Rpf Sm. Conditions: inhibitor 2 and 4 µg/ml, Rpf Sm 40 µg/ml.
In data set [7] the target is T2, ΔDUFRpf B. Also noted: species or system M. tuberculosis. Conditions: inhibitor 2 and 4 µg/ml, ΔDUFRpf B 60 µg/ml.
The test system of the next data set is M. smegmatis. Format: cell-based, Mycobacterium smegmatis. The conditions noted are these: at 0.1–1 µg/ml (not shown).

T1 sequence (O86308 42-134): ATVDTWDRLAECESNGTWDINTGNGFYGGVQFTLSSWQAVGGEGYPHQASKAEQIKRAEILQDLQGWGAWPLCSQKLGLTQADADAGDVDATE
T2 sequence (P9WG29 whole entry, looked up, stated change not applied): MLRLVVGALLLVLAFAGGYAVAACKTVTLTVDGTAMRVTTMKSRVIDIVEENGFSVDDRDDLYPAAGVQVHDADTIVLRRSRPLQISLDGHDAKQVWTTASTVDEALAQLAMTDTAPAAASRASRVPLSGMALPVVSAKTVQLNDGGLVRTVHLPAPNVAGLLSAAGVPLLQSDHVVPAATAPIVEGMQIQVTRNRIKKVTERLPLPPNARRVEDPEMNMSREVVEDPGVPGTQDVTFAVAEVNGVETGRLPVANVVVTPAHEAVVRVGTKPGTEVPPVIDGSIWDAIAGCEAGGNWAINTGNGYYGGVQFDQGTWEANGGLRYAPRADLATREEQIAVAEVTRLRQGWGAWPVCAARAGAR

For the compound `N#CSc1ccc(C(=O)c2ccccc2)cc1[N+](=O)[O-]` [VII, 4-Benzoyl-2-nitrophenyl thiocyanate], the melting point lay within 104 to 106 °C. Also, the MIC against Micrococcus luteus was in the range of 1 to 5 µg/mL (≈ 3.52 to 17.6 µM). On Rpf Sm [1], this compound had an IC50 of 6.68 µM. The “type of inhibition of Rpf-Sm muralytic activity (Lineweaver-Burk plot)” value on Rpf Sm [1] (substrate 3 to 24 µM, inhibitor 0.5 to 10 µg/ml) was “non-competitive inhibition”. Besides, the “interaction with the buried tryptophanes of ΔDUFRpfB” value on ΔDUFRpf B [2] (fluorescence studies) was “interacted with at least two exposed and one buried tryptophan”. In addition, the “accessible fraction of ΔDUFRpfB tryptophanes (fa)” value on ΔDUFRpf B [2] (modified Stern-Volmer equation, excitation 280 nm, emission 340 nm) was approximately 65%. For the same compound, the “concentrations active in suppressing resuscitation of M. smegmatis” value in data set [3] is 0.1 to 1 µg/mL. Further, in [4] (time 0 days), the “MPN, logarithmic transformation of cell concentration (cells/ml)” value (shortened to “MPN, logarithmic transformation”) came out at 3.48. Also, in [4] (time 14 days), the “MPN, logarithmic transformation” value was 3.48. The “MPN, logarithmic transformation” value in [4] (time 19 days) was 3.48. The “MPN, logarithmic transformation” value in [4] (time 21 days) was found to be 3.86. Besides, the “MPN, logarithmic transformation” value in [4] (time 23 days) is listed as 5.38. The “MPN, logarithmic transformation” value in [4] (time 27 days) stood at 6.18. Also, the “MPN, logarithmic transformation” value in data set [4] (time 30 days) was 6.18. Further, in data set [4] (time 33 days), the “MPN, logarithmic transformation” value was 6.18. For the same compound, the “MPN, logarithmic transformation” value in data set [4] (time 36 days) came to 6.18. In addition, the “MPN, logarithmic transformation” value in data set [4] (time 40 days) is on record as 6.18. Besides, the “τ1/2, time needed to achieve a 50% level of substrate conversion, Alchoholdehydrohenase” value in data set [5] (compound 4 µg/ml) was 1.75 s. Besides, in data set [5] (compound 10 µg/ml), the “τ1/2, time needed to achieve a 50% level of substrate conversion, Alchoholdehydrohenase” value was 1.7 s. Further, the “τ1/2, time needed to achieve a 50% level of substrate conversion, Laccase” value in the data set on Laccase(1.10.3.2) (compound 4 µg/ml) is 3.6 s. The “τ1/2, time needed to achieve a 50% level of substrate conversion, Laccase” value in the data set on Laccase(1.10.3.2) (compound 10 µg/ml) was 3.5 s. For the same compound, the “τ1/2, time needed to achieve a 50% level of substrate conversion, Trypsin” value in the data set on Trypsin(3.4.21.4) (compound 4 µg/ml) came out at 10 s. Moreover, in the data set with Trypsin(3.4.21.4) (compound 10 µg/ml), the “τ1/2, time needed to achieve a 50% level of substrate conversion, Trypsin” value came out at 10 s. The “changes in the CD spectra of Rpf Sm” value on Rpf Sm [6] is given as “did not produce significant changes”. Also, the “changes in the CD spectra of ΔDUFRpf B” value on ΔDUFRpf B [7] is recorded as “did not produce significant changes”. For the same compound, the “growth of active cells of M. smegmatis” value with M. smegmatis was “did not inhibit growth”.

On to `N#CSc1cc(SC#N)c([N+](=O)[O-])cc1[N+](=O)[O-]` [III, 1,5-Dinitro-2,4-dithiocyanatobenzene], for which the melting point fell in the range of 78 to 80 °C. Also, in the data set on Micrococcus luteus, the MIC amounted to 5 µg/mL (≈ 17.7 µM). For the same compound, at Rpf Sm [1] (pH 6.0, 3 hours at 37°C, NI = no inhibition was observed, read-out: 4-MUF-3-NAG hydrolysis IC50, Rpf Sm (converted)), the 50% inhibitory concentration (IC50) was 4.25 µM. Moreover, in data set [3], the “concentrations active in suppressing resuscitation of M. smegmatis” value is 0.1 to 1 µg/mL. In addition, in [4] (10 µg/ml, MPN assay, versus untreated resuscitating cells), the “effect on resuscitation of M. tuberculosis "non-culturable" cells” value is “practically did not influence resuscitation”. Moreover, the “MPN, logarithmic transformation” value in [4] (time 0 days) was 3.48. In data set [4] (time 14 days), the “MPN, logarithmic transformation” value came out at 3.48. Also, the “MPN, logarithmic transformation” value in data set [4] (time 19 days) is 3.86. The “MPN, logarithmic transformation” value in data set [4] (time 21 days) amounted to 4.63. Also, the “MPN, logarithmic transformation” value in data set [4] (time 23 days) was 4.63. Moreover, in data set [4] (time 27 days), the “MPN, logarithmic transformation” value is 5.66. Also, the “MPN, logarithmic transformation” value in [4] (time 30 days) was determined as 6.38. The “MPN, logarithmic transformation” value in data set [4] (time 33 days) is 6.38. Moreover, the “MPN, logarithmic transformation” value in data set [4] (time 36 days) came to 6.38. In addition, in [4] (time 40 days), the “MPN, logarithmic transformation” value is reported as 6.38. In addition, the “τ1/2, time needed to achieve a 50% level of substrate conversion, Alchoholdehydrohenase” value in data set [5] (compound 4 µg/ml) was determined as 1.7 s. Besides, in data set [5] (compound 10 µg/ml), the “τ1/2, time needed to achieve a 50% level of substrate conversion, Alchoholdehydrohenase” value turned out to be 1.7 s. Besides, the “τ1/2, time needed to achieve a 50% level of substrate conversion, Laccase” value with Laccase(1.10.3.2) (compound 4 µg/ml) turned out to be 3.6 s. In the data set with Laccase(1.10.3.2) (compound 10 µg/ml), the “τ1/2, time needed to achieve a 50% level of substrate conversion, Laccase” value was 3.5 s. Further, the “τ1/2, time needed to achieve a 50% level of substrate conversion, Trypsin” value in the data set with Trypsin(3.4.21.4) (compound 4 µg/ml) stood at 10 s. Moreover, the “τ1/2, time needed to achieve a 50% level of substrate conversion, Trypsin” value in the data set on Trypsin(3.4.21.4) (compound 10 µg/ml) came to 10 s. Further, the “growth of active cells of M. smegmatis” value in the data set on M. smegmatis is on record as “did not inhibit growth”.
